Results from patent US20170121268A1, “PPAR MODULATORS” (THE GOVERNING COUNCIL OF THE UNIVERSITY OF TORONTO, priority 2014, published 2017).

How the values were obtained:
GAL4-hPPARγ = target: T1, GAL4-hPPARγ (Homo sapiens, UniProt P37231); test: GAL4-hPPARγ-UAS-luciferase reporter assay in transiently transfected HEK293 cells; format: cell-based; conditions: for PPARγ agonist profile compared to rosiglitazone control / EC50: dose-response, HEK293 cells; for EC50: read-out: EC50 for PPARγ; for PPARγ reporter response relative to vehicle: dosed at 50 μM
T1 sequence (P37231 238-505 limits assumed): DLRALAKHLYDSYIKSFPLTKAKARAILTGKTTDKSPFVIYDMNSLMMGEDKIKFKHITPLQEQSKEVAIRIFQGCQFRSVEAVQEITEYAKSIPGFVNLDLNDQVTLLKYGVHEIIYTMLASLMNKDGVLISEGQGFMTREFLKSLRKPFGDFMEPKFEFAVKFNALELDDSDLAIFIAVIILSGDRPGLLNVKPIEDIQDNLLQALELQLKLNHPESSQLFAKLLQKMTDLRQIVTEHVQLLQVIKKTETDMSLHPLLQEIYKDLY
Experimental: (§1) HEK293 cells were maintained in Dulbecco's modified Eagle's medium supplemented with 10% fetal bovine serum. Cell transfection was performed in media containing 10% charcoal-stripped fetal bovine serum using calcium phosphate in 96-well plates. The total amount of plasmid DNA (150 ng/well) included 50 ng UAS-Iuc reporter, 20 ng β-galactosidase, 15 ng nuclear receptor (GAL4-hPPARα and GAL4-hPPARγ) and pGEM filler plasmid. Ligands were added at 6 to 8 hours post transfection. Cells harvested 14 to 16 hours later were assayed for luciferase and β-galactosidase activity.

[1] = tested on: PPARγ target genes in 3T3-L1 pre-adipocytes; test: 3T3-L1 differentiation assay, expression of PPARγ target genes (QPCR); format: cell-based; conditions: 25 μM, day 11
Experimental: (§2) 3T3-L1 cells were maintained in Dulbecco's modified Eagle's medium supplemented with 10% fetal calf serum. Adipocyte differentiation was induced in two-days postconfluent cells by treating the cells with 100 μg/ml isobutylmethylxanthine, 1 μM dexamethasone, and 5 μg/ml insulin with 10% FBS in DMEM (Day 0). Rosiglitazone and LDT ligands were added at the start of differentiation. Two days later, cells were switched to the medium containing 5 μg/ml insulin with 10% FBS. After an additional 72 hrs, cells were switched to maintenance media containing 10% FBS in DMEM. Thereafter, the media was changed every 2 days. Cells were harvested on day 11 for RNA expression and Oil Red O was used to estimate lipid accumulation.
(§3) Total RNA was extracted from cells using RNA STAT-60 (Tel-Test Inc.), followed by DNase I treatment (RNase-free; Roche), and reverse transcribed into cDNA with random hexamers using the High Capacity Reverse Transcription System (ABI; Applied Biosystems). Real-time quantitative PCR (QPCR) analysis was performed on an ABI 7900 in 384-well plates using 2×SYBR Green PCR Master Mix (ABI). Relative mRNA levels were calculated using the comparative Ct method normalized to cyclophilin mRNA.

GAL4-hPPARα = target: T2, GAL4-hPPARα (Homo sapiens, UniProt Q07869); test: GAL4-hPPARα-UAS-luciferase reporter assay in transiently transfected HEK293 cells; format: cell-based; conditions: for PPARα agonist profile compared to the full agonist GW7647 / EC50: dose-response, HEK293 cells; for EC50: read-out: EC50 for PPARα; for PPARα reporter response relative to vehicle: dosed at 50 μM
T2 sequence (Q07869 200-468 limits assumed): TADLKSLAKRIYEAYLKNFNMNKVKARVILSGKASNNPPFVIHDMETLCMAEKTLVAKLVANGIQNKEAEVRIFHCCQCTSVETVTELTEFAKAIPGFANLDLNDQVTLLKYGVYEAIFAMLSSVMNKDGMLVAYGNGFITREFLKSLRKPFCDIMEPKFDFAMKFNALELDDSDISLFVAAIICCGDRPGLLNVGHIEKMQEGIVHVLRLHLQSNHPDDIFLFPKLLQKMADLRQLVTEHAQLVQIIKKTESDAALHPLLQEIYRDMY
Experimental: as §1

3T3-L1 cells = test: Oil Red O staining of 3T3-L1 adipocytes after 11 days of differentiation; format: cell-based; conditions: 25 μM
Experimental: as §2
Following 11 days of differentiation, cells were washed with PBS twice and fixed in 10% neutral buffered formalin (Sigma) for 1 h at room temperature, followed by two ddH2O and two washes with 60% isopropanol. Cells were then stained with 0.6% (w/v) Oil Red O solution (60% isopropanol, 40% water) for 10 min at room temperature, followed by five washes with ddH2O to remove unbound dye and images were taken with Leica M205 FA microscope.

[2] = women on drug; cited from earlier work
[3] = tested on: PPARα target genes in primary mouse hepatocytes; test: Primary hepatocyte assay, expression of PPARα target genes (QPCR); format: cell-based; conditions: 50 μM, 24 hrs
Experimental: Mouse primary hepatocytes were isolated by collagenase perfusion as previously described (Patel et al. 2011). Cells were plated onto type I collagen-coated plates at 0.5×10^6 cells per well for 2 hours in attachment media (William's E Media, 10% charcoal stripped FBS, 1× penicillin/streptomycin, and 10 nM insulin), and then switched to overnight media (M199 Media, 5% charcoal stripped FBS, 1× penicillin/streptomycin, and 1 nM insulin). Ligand treatments were carried out on the following day in M199 media without FBS. Cells were harvested 24 hrs later for RNA extraction.
as §3

Row | SMILES | PPARγ agonist profile compared to rosiglitazone control (GAL4-hPPARγ) | EC50 (GAL4-hPPARγ) | PPARα agonist profile compared to the full agonist GW7647 (GAL4-hPPARα) | EC50 (GAL4-hPPARα) | GLUT4 expression [1] | adipocyte differentiation by Oil red O staining (3T3-L1 cells) | also measured
1 | CCOC(=O)COc1cccc(CCCCCCCC(=O)O)c1 [LDT298, 8-(3-(2-Ethoxy-2-oxoethoxy)phenyl)octanoic acid] | – | – | less potent partial PPARα agonists | 1.3 µM | – | – | increase in reporter activity in the PPARγ activation assay (GAL4-hPPARγ; FIG. 5B, dose not given): comparable luciferase activation; increase in activity as compared to Veh in the PPARα activation assay (GAL4-hPPARα; FIG. 5A, dose not given): comparable luciferase activation
2 | CN(CCOc1ccc(CC2SC(=O)NC2=O)cc1)c1ccccn1 (centres unmarked) [rosiglitazone] | – | – | – | – | – | – | rate of distal bone fractures [2]: two-fold increased rate
3 | CCCCCCCCCCCCCCCc1cccc(OC(C)(C)C(=O)OCC)c1 [LDT408] | partial PPARγ agonists | – | – | – | augmented | less adipogenic compared to Rosi | UCP2 expression [1]: upregulated; adiponectin expression [1]: significantly increased; CD36 expression (hepatocytes) [3]: significantly increased; FABP1 expression [3]: significantly increased; PDK4 expression [3]: upregulated
4 | CCc1ccc(CCOc2ccc(CC3SC(=O)NC3=O)cc2)nc1 (centres unmarked) [pioglitazone] | – | – | – | – | – | – | rate of distal bone fractures [2]: two-fold increased rate
5 | CCCCCCCCCCCCCCCc1cccc(OCC(=O)O)c1 [LDT16] | full agonist profile | 3.6 µM | – | 0.9 µM | – | – | –
6 | CCCCCCCCCCCCCCCc1cccc(OC(C)=O)c1C(=O)O [LDT13] | partial PPARγ agonists | 12 µM | – | 7 µM | augmented | – | –
7 | CCCCCCCCCCCCCCCc1cccc(OCC(=O)OCC)c1 [LDT15] | partial PPARγ agonists | 42 µM | – | 3.5 µM | augmented | less adipogenic compared to Rosi | UCP2 expression [1]: upregulated; adiponectin expression [1]: induced to a similar degree as Rosi; CD36 expression (hepatocytes) [3]: significantly increased; FABP1 expression [3]: significantly increased; Fgf21 expression [3]: upregulation; PDK4 expression [3]: upregulated
8 | CCCCCCCCCCCCCCCc1cccc(O)c1C(=O)O [LDT11] | full agonist profile | 12 µM | – | 9 µM | augmented | less adipogenic compared to Rosi | adiponectin expression [1]: significantly increased
9 | CCOC(=O)COc1cccc(CCCCCCCCO)c1 [LDT296, Ethyl 2-(3-(8-hydroxyoctyl)phenoxy)acetate] | less potent, full agonist profile | – | less potent partial PPARα agonists | – | – | – | –
10 | CCCCCCCCCCCCCCCc1cccc(OC)c1C(=O)O [LDT30] | – | – | – | 32 µM | – | – | UCP2 expression [1]: upregulated
11 | CCOC(=O)CCCCCCCc1cccc(OC(C)(C)C(=O)OCC)c1 [LDT481, Ethyl 8-(3-((1-ethoxy-2-methyl-1-oxopropan-2-yl)oxy)phenyl)octanoate] | – | – | – | – | upregulated | able to induce adipocyte differentiation | melting point: 39 to 42 °C

More lines, main results first:

Row | PPARγ agonist profile compared to rosiglitazone control (GAL4-hPPARγ) | EC50 (GAL4-hPPARγ) | PPARα agonist profile compared to the full agonist GW7647 (GAL4-hPPARα) | EC50 (GAL4-hPPARα) | SMILES | GLUT4 expression [1] | adipocyte differentiation by Oil red O staining (3T3-L1 cells) | also measured
12 | full agonist profile | 14 µM | less potent partial PPARα agonists | 20 µM | CC(C)(Oc1cccc(CCCCCCCCO)c1)C(=O)O [LDT477, 2-(3-(8-hydroxyoctyl)phenoxy)-2-methylpropanoic acid] | upregulated | able to induce adipocyte differentiation | PPARγ reporter response relative to vehicle (GAL4-hPPARγ): most active; PPARα reporter response relative to vehicle (GAL4-hPPARα): most active
13 | full agonist profile | 14 µM | less potent partial PPARα agonists | 37 µM | CCOC(=O)C(C)(C)Oc1cccc(CCCCCCCC(=O)O)c1 [LDT478, 8-(3-((1-ethoxy-2-methyl-1-oxopropan-2-yl)oxy)phenil)octanoic acid] | – | – | –
14 | full agonist profile | 21 µM | less potent partial PPARα agonists | 3.9 µM | CCOC(=O)CCCCCCCc1cccc(OCC(=O)OCC)c1 [LDT480, Ethyl 8-(3-(2-ethoxy-2-oxoethoxy)phenyl)octanoate] | – | – | PPARγ reporter response relative to vehicle (GAL4-hPPARγ): most active; PPARα reporter response relative to vehicle (GAL4-hPPARα): most active
15 | – | – | – | 0.2 µM | CCCCCCCCCCCCCCCc1cccc(OC(C)(C)C(=O)O)c1 [LDT409] | augmented | comparable to Rosi | UCP2 expression [1]: upregulated; adiponectin expression [1]: induced to a similar degree as Rosi
